Reference: patent publication US20060111289A1, “Compositions and methods of using Alpha-fetoprotein growth inhibitory peptides” (Serometrix, LLC,, priority 2004, published 2006)
Marks after values point to notes of the source that are not given here. Where a SMILES comes first, the peptide text is derived from it.

Tests used:
[1] = tested on: LNCaP human prostate tumor cells; assay: Whole-cell voltage clamp of LNCaP cells; format: cell-based; details: peptide 10 μM, voltage ramp −100-100 mV (400 ms duration)
Protocol: LNCaP human prostate tumor cells were cultured on 5×5 mm plastic coverslips and were transferred to a microperfusion chamber on the stage of an inverted microscope. Whole-cell voltage clamp was accomplished with an Axopatch 200B (Axon Instr. Co., Union City, Calif.) using ruptured patches. Borosilicate glass capillaries (1.2 mm OD, 0.68 ID, type EN-I, Garner Glass Co., Claremont, Calif.) were used to fabricate patch pipettes (3-8 MΩ in the bath solution) with a Brown-Flaming horizontal micropipette puller (P-87, Sutter Instruments, San Rafael, Calif.). Patch-pipette tips were heat-polished prior to use. A micromanipulator (Narishige) fixed to the microscope positioned the pipettes. Electrode capacitance and access resistance were compensated prior to measurements. All experiments will be performed at room temperature (20-22° C.). The standard extracellular salt solution for ion currents contained (in mM): 150 NaCl, 6 KCl, 1.5 CaCl2, 1 MgCl2, 10 HEPES, 10 glucose, and pH adjusted to 7.4 with 1 N NaOH. […] Electrophysiological recordings were procured and analyzed using PClamp8 software (Axon Instr. Co, Union City, Calif.) and the WinASCD software (Guy Droogmans, Katholieke Universiteit; Leuven, B E). All results were recorded on computer hard drive or on digital audio tape (DAT). […]

[2] = tested on: 6WI-1 mammary tumor cells; assay: Mouse ascites mammary tumor assay (6WI-1 isograft); format: in vivo
Protocol: The growth suppression of the mammary ascites tumor by AFP peptides and its fragments P149a, P149b and P149c, and control peptides were determined in non-estrogen dependent assays which measured tumor cell growth and ascites accumulation of 6WI-1 mammary transplanted NYLAR/nya mice. […] Tumor cell inocula included doses of 0.3, 1.0, and 3.0×10^6 cells which produced host mortality at 12-14 days which was lethal in 100% of the animals. Following peptide dose titration studies, mice inoculated with 6WI-1 mammary cells were injected with a previously-determined optimal dose of 1.0 μg peptide per day or saline for 11 days. On day 12 following inoculation, the total accumulated ascites fluid volume and tumor cells in the peritoneal cavity of each animal were harvested and the cell count determined.
Inoculation of mice with all three cell doses led to an increase in body weight from 25 g (day 0) to approximately […] by day 12, due to the accumulation of tumor cells and ascites fluid in the intraperitoneal cavity. An average cell count in accumulated ascites fluid on day 12 was greater than 10^8 cells/ml with a total ascites volume approximating 20 mls. Tumor cell proliferation in this model has been reported to correlate with the volume of ascites fluid accumulated.
The 6WI-1 mouse mammary tumor studies involving peptide and non-peptide treatment were further compared by histopathological analysis performed on hematoxylin/eosin stained tissue sections.

[3] = tested on: human platelets; assay: Platelet aggregation in human platelet-rich plasma; format: cell-based; design: % Inhibition Of Activity: Platelet Agg. ADP / % Inhibition Of Activity: Platelet Agg. AA / % Inhibition Of Activity: Platelet Agg. Coll: concentration or dose not given beside the values
Protocol: FIG. 9 presents exemplary data showing platelet aggregation modulation using 0.5 ml of normal human platelet-rich plasma (PRP) with varying amounts of P149 or P 149b using 2.5×10^6 platelets per reaction vessel.
FIG. 10 presents exemplary data showing platelet aggregation activation by arachidonic acid (AA) and collagen using P149-treated platelet suspensions • Panel A1: AA alone; • Panel A2: AA followed by epinephine (EPI) and EPI alone using P149b; • Panel A3: CD62P flow cytometry fluorescence quenching by P149; • Panel B1: collagen alone and collagen+P149; • Panel B2: collagen alone; collagen+P149a showing aggregation diminution.
GIP-derived peptide fragments and/or subfragments have been assayed for platelet aggregation by measuring light transmissions with an aggregometer using a stirred human platelet suspension. Kinlough-Rathbone et al., In: Platelet Aggregation in Measurements of Platelet Function, Eds. Harker L A, Zimmerman T S., Churchill Livingstone, London. pp. 64-87 (1983); and Whittle et al., “Specificity between the anti-aggregatory actions of prostacyclin, prostaglandin Eland D2 on platelets” In: Mechanisms of stimulus—response coupling in platelets, Eds. V. V. K., MacIntyre D E, Scully M F., New York and London: Plenum Press. pp. 109-115 (1985).
The ability of GIP and its fragments were individually examined for aggregation inhibition using citrated human platelet-rich plasma (PRP). The peptides were freshly dissolved in 0.15 M NaCl containing 2.5×10^6 platelets/ml. […]

[4] = Estrogen fetotoxicity; design: concentration or dose not given beside the values; details: in vivo
[5] = tested on: immature mouse uterine growth; assay: E2-activated immature mouse uterine growth assay; format: in vivo; design: concentration or dose not given beside the values
[6] = 6WI-1 mouse mammary ascites tumor

| Compound | Slope conductance (membrane conduction) [1] | % Inhibition Of Activity: 6WI-1 Acites Volume [2, 6] | % Inhibition Of Activity: 6WI-1 Body Weight [2, 6] | % Inhibition Of Activity: 6WI-1 Cell Prol [2, 6] | % Inhibition Of Activity: 6WI-1 Peptide Combos ([2]; peptide combination) | % Inhibition Of Activity: Platelet Agg. ADP ([3]; ADP-induced) | % Inhibition Of Activity: Platelet Agg. AA ([3]; arachidonic acid-induced) | % Inhibition Of Activity: Platelet Agg. Coll ([3]; collagen-induced) | Inhibition (%) Of Platelet Aggregation, Adenosine Diphosphate (ADP) 2.5 μM ([3]; peptide inhibitors 30 & 100 μM) | Inhibition (%) Of Platelet Aggregation, Arachidonic Acid (AA) 0.3 mM ([3]; peptide inhibitors 30 & 100 μM) | Inhibition (%) Of Platelet Aggregation, Collagen (COLL) 2 μg/ml ([3]; peptide inhibitors 30 & 100 μM) | Inhibition (%) Of Platelet Aggregation, Epinephrine ([3]; peptide inhibitors 30 & 100 μM) | % Inhibition Of Activity: Estrogen Fetotoxicty [4] | % Inhibition Of Activity: Uterine Growth, Enzymatic Fragments [5] |
| --- | --- | --- | --- | --- | --- | --- | --- | --- | --- | --- | --- | --- | --- | --- |
| CC[C@H](C)[C@H](NC(=O)[C@@H]1CSSC[C@H](NC(=O)[C@H](C)NC(=O)[C@H](CC(C)C)NC(=O)[C@H](CC(C)C)NC(=O)[C@H](CCCCN)NC(=O)[C@H](CC(=O)O)NC(=O)[C@H](CCC(=O)O)NC(=O)[C@H](CO)NC(=O)[C@@H](N)CC(C)C)C(=O)NCC(=O)N[C@@H](CCC(=O)O)C(=O)NCC(=O)N[C@@H](C)C(=O)N[C@@H](C)C(=O)N[C@@H](CC(=O)O)C(=O)N[C@@H]([C@@H](C)CC)C(=O)N[C@@H]([C@@H](C)CC)C(=O)N[C@@H]([C@@H](C)CC)C(=O)NCC(=O)N[C@@H](Cc2c[nH]cn2)C(=O)N[C@@H](CC(C)C)C(=O)N1)C(=O)N[C@@H](CCCNC(=N)N)C(=O)N[C@@H](Cc1c[nH]cn1)C(=O)N[C@@H](CCC(=O)O)C(=O)N[C@@H](CCSC)C(=O)N[C@H](C(=O)N1CCC[C@H]1C(=O)N[C@H](C(=O)N[C@@H](CC(N)=O)C(=O)N1CCC[C@H]1C(=O)NCC(=O)N[C@H](C(=O)O)C(C)C)C(C)C)[C@@H](C)O [Cyclic GIP] (HELM PEPTIDE1{L.S.E.D.K.L.L.A.C.G.E.G.A.A.D.I.I.I.G.H.L.C.I.R.H.E.M.T.P.V.N.P.G.V}$PEPTIDE1,PEPTIDE1,9:R3-22:R3$$$V2.0; N-terminus and C-terminus assumed) | 0.78 0.15* nS/pF | – | – | – | – | – | – | – | – | – | – | – | – | – |
| KDFIHKQGVALQTMKQELINLVKELVKPQIEAVADFSGLL (listed as Homo sapiens) [P192, reference compound] | – | 0% | 0% | 0% | 0% | 0% | 0% | 0% | No effect | No effect | No effect | No effect | 0% | 0% |
